Series [1] deals with T1, CB1R (Rattus norvegicus, UniProt P20272).
T1 construct: from tissue; host or cells: rat cerebellum (membranes)
The series is described as follows: CB1R radioligand binding assay versus [3H]-SR141716A in rat cerebellar membranes. The conditions noted are these: for CB1R affinity (in words): radioligand not given; for Ki: radioligand [3H]-SR141716, mean ± standard error, three independent experiments in triplicate, read-out: K i (nM) CB1R versus [^3H]-SR141617. From the text: (§1) Radioligand Binding Assays. […] Competitive radioligand binding assays have been used to evaluate the affinity of selected synthetized triazoles to CB1R in rat cerebellar membranes.

The target of series [2] is T1, CB1R. Description: CB1R radioligand binding assay versus [3H]-WIN552122 in rat cerebellar membranes.
Text: as §1

Series [3] concerns obese animals. The arrangement: method as in PMID 16750544, PMID 18426510, PMID 21951309. Particulars: cited from earlier work.

Each structure is given as a SMILES string. Entries after “also recorded” stand apart in the source; their conditions may differ.

T1 sequence (P20272 whole entry): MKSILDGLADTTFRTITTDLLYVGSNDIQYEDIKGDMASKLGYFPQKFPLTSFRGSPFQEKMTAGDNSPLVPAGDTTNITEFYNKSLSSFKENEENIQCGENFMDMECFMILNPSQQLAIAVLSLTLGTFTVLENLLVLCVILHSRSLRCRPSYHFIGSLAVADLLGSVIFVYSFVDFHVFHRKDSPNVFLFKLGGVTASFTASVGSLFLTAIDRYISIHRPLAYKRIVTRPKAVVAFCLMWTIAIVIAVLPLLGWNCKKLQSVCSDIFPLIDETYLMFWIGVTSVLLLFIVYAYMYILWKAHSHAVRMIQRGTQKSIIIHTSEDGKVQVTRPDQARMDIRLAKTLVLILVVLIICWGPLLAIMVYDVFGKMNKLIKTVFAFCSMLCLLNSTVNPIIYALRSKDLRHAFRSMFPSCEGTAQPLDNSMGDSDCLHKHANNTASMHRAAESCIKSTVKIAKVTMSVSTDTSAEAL

For `CCCCCCCc1nc(-c2ccccc2)nn1Cc1ccccc1` [Compound 7a, 1-Benzyl-5-heptyl-3-phenyl-1H-1,2,4-triazole], the “CB1R affinity (in words)” value in series [1] is “moderate CB1R affinity”.

Regarding `CCCCCCCc1nc(-c2ccccc2)nn1Cc1ccc(Cl)cc1` [Compound 8a, 1-(4-Chlorobenzyl)-5-heptyl-3-phenyl-1H-1,2,4-triazole], the “CB1R affinity (in words)” value in series [1] is listed as “moderate CB1R affinity”.

Usually melting point stands for the temperature, or range, at which the solid turns liquid. For `CCCCCCCc1nc(-c2ccccc2)n(Cc2ccc(Cl)cc2Cl)n1` [Compound 9b, 1-(2,4-Dichloro-benzyl)-3-heptyl-5-phenyl-1H-1,2,4-triazole], the melting point was in the range of 70 to 73 °C.

As to `CCCCCCCc1nc(-c2ccc(Cl)cc2)nn1Cc1ccccc1` [Compound 10a, 1-Benzyl-3-(4-chlorophenyl)-5-heptyl-1H-1,2,4-triazole], the “CB1R affinity (in words)” value in series [1] was “moderate CB1R affinity”.

With `CCCCCCCc1nc(-c2ccc(Cl)cc2)nn1Cc1ccc(Cl)cc1` [Compound 11a, 1-(4-Chlorobenzyl)-3-(4-chlorophenyl)-5-heptyl-1H-1,2,4-triazole], the “CB1R affinity (in words)” value in series [1] is “moderate CB1R affinity”.

For the compound `CCCCCCCc1nc(-c2ccc(Cl)cc2)nn1Cc1ccc(Cl)cc1Cl` [Compound 12a, 3-(4-Chlorophenyl)-1-(2,4-dichlorobenzyl)-5-heptyl-1H-1,2,4-triazole], in series [1], the Ki turned out to be 13.9 nM and the “CB1R affinity (in words)” value was “CB1R affinity in the nanomolar range; also recorded: high affinity for CB1R”. For the same compound, in series [2] (radioligand [3H]-WIN552122, mean ± standard error, three independent experiments in triplicate), the “K i (nM) CB1R versus [^3H]-WIN552122” value is on record as 323 nM.

As to `CCCCCCCc1nc(-c2ccc(Cl)cc2)n(Cc2ccc(Cl)cc2Cl)n1` [Compound 12b, 5-(4-Chlorophenyl)-1-(2,4-dichlorobenzyl)-3-heptyl-1H-1,2,4-triazole], the melting point fell in the range of 97 to 99 °C.

As for `CCCCCCCc1nc(-c2ccncc2)n(Cc2ccc(Cl)cc2Cl)n1` [Compound 15b, 4-[1-(2,4-Dichlorobenzyl)-3-heptyl-1H-1,2,4-triazol-5-yl]pyridine], the melting point lay within 104 to 105 °C.

In the case of `CCCCCCCc1nc(-c2cc[n+](C)cc2)nn1Cc1ccc(Cl)cc1Cl.[I-]` [Compound 18, 4-[1-(2,4-Dichlorobenzyl)-5-heptyl-1H-1,2,4-triazol-3-yl]-1-methylpyridinium Iodide], the melting point was in the range of 136 to 138 °C.

Turning to `CCCCCCc1nc(-c2ccc(Cl)cc2)n(-c2ccc(Cl)cc2Cl)n1` [LH21, 5-(4-chlorophenyl)-1-(2,4-dichlorophenyl)-3-hexyl-1H-1,2,4-triazole, reference compound], the Ki is 856 ± 296 nM in series [1] and 748 ± 193 nM in series [2] (read-out: K i (nM) CB1R versus [^3H]-WIN552122, radioligand [3H]-WIN552122, mean ± standard error, three independent experiments in triplicate). The “antiobesity activity in in vivo assays” value in series [3] was “exhibited antiobesity activity”.
